Tests used:
[1] = Inhibition of PAF-induced rabbit platelet aggregation
[2] = Inhibition of [3H]PAF binding to rabbit platelet membrane

IC50 [1] [µM]	EC50 [2] [µM]	SMILES
1.78		COc1cc(C(=O)N2CCN(C(=O)c3cc(OC)c(OC)c(OC)c3)CC2)cc(OC)c1OC
0.74	0.18	C[C@@H]1C(=O)O[C@H]2[C@H](O)[C@@]34[C@H]5C[C@@H](C(C)(C)C)[C@]36[C@@H](OC(=O)[C@@H]6O)O[C@@]4(C(=O)O5)[C@@]12O
12.5		COc1cc(N2CCN(c3cc(OC)c(OC)c(OC)c3)CC2)cc(OC)c1OC [1,4-Bis-(3,4,5-trimethoxy-phenyl)-piperazine]
0.1	0.3	COc1cc(C(=O)N2CCN(C(=O)c3cc(OC)c(OC)c(OC)c3)C(COC(=O)C(C)(C)C)C2)cc(OC)c1OC (stereo unspecified) [2,2-Dimethyl-propionic acid 1,4-bis-(3,4,5-trimethoxy-benzoyl)-piperazin-2-ylmethyl ester]
0.17	0.45	COc1cc(C(=O)N2CCN(C(=O)c3cc(OC)c(OC)c(OC)c3)C(COC(=O)c3ccccc3Cl)C2)cc(OC)c1OC (stereo unspecified) [2-Chloro-benzoic acid 1,4-bis-(3,4,5-trimethoxy-benzoyl)-piperazin-2-ylmethyl ester]
2.7		CCC(CC)C(=O)OCC1CN(Cc2cc(OC)c(OC)c(OC)c2)CCN1Cc1cc(OC)c(OC)c(OC)c1 (stereo unspecified) [2-Ethyl-butyric acid 1,4-bis-(3,4,5-trimethoxy-benzyl)-piperazin-2-ylmethyl ester]
0.12		COc1cc(C(=O)N2CCN(C(=O)c3cc(OC)c(OC)c(OC)c3)C(COC(=O)CC(C)(C)C)C2)cc(OC)c1OC (stereo unspecified) [3,3-Dimethyl-butyric acid 1,4-bis-(3,4,5-trimethoxy-benzoyl)-piperazin-2-ylmethyl ester]
0.32		CCC(C)(C)NC(=O)OCC1CN(C(=O)c2cc(OC)c(OC)c(OC)c2)CCN1C(=O)c1cc(OC)c(OC)c(OC)c1 (stereo unspecified) [(1,1-Dimethyl-propyl)-carbamic acid 1,4-bis-(3,4,5-trimethoxy-benzoyl)-piperazin-2-ylmethyl ester]
0.17		COc1cc(C(=O)N2CCN(C(=O)c3cc(OC)c(OC)c(OC)c3)C(COC(=O)NC(C)C(C)(C)C)C2)cc(OC)c1OC (stereo unspecified) [(1,2,2-Trimethyl-propyl)-carbamic acid 1,4-bis-(3,4,5-trimethoxy-benzoyl)-piperazin-2-ylmethyl ester]
0.08	0.07	COc1cc(C(=O)N2CCN(C(=O)c3cc(OC)c(OC)c(OC)c3)C(COC(=O)NC(C)C(C)C)C2)cc(OC)c1OC (stereo unspecified) [(1,2-Dimethyl-propyl)-carbamic acid 1,4-bis-(3,4,5-trimethoxy-benzoyl)-piperazin-2-ylmethyl ester]
0.28	0.18	COc1cc(C(=O)N2CCN(C(=O)c3cc(OC)c(OC)c(OC)c3)C(COC(=O)NC(C)CC(C)C)C2)cc(OC)c1OC (stereo unspecified) [(1,3-Dimethyl-butyl)-carbamic acid 1,4-bis-(3,4,5-trimethoxy-benzoyl)-piperazin-2-ylmethyl ester]
0.38	0.68	CCCN(CCC)C(=O)OCC1CN(C(=O)c2cc(OC)c(OC)c(OC)c2)CCN1C(=O)c1cc(OC)c(OC)c(OC)c1 (stereo unspecified) [(1,4-bis(3,4,5-trimethoxybenzoyl)piperazin-2-yl)methyl dipropylcarbamate]
0.13		CCC(CC)NC(=O)OCC1CN(C(=O)c2cc(OC)c(OC)c(OC)c2)CCN1C(=O)c1cc(OC)c(OC)c(OC)c1 (stereo unspecified) [(1-Ethyl-propyl)-carbamic acid 1,4-bis-(3,4,5-trimethoxy-benzoyl)-piperazin-2-ylmethyl ester]
0.1		CCCC(C)NC(=O)OCC1CN(C(=O)c2cc(OC)c(OC)c(OC)c2)CCN1C(=O)c1cc(OC)c(OC)c(OC)c1 (stereo unspecified) [(1-Methyl-butyl)-carbamic acid 1,4-bis-(3,4,5-trimethoxy-benzoyl)-piperazin-2-ylmethyl ester]
3.9		CCCCC(CC)CNC(=O)OCC1CN(C(=O)c2cc(OC)c(OC)c(OC)c2)CCN1C(=O)c1cc(OC)c(OC)c(OC)c1 (stereo unspecified) [(2-Ethyl-hexyl)-carbamic acid 1,4-bis-(3,4,5-trimethoxy-benzoyl)-piperazin-2-ylmethyl ester]
0.47		CCC(C)CNC(=O)OCC1CN(C(=O)c2cc(OC)c(OC)c(OC)c2)CCN1C(=O)c1cc(OC)c(OC)c(OC)c1 (stereo unspecified) [(2-Methyl-butyl)-carbamic acid 1,4-bis-(3,4,5-trimethoxy-benzoyl)-piperazin-2-ylmethyl ester]
13.8		COc1cc(NC(=O)OCC2CN(C(=O)c3cc(OC)c(OC)c(OC)c3)CCN2C(=O)c2cc(OC)c(OC)c(OC)c2)cc(OC)c1OC (stereo unspecified) [(3,4,5-Trimethoxy-phenyl)-carbamic acid 1,4-bis-(3,4,5-trimethoxy-benzoyl)-piperazin-2-ylmethyl ester]

IC50 [1] [µM]	EC50 [2] [µM]	SMILES
0.14		COc1cc(C(=O)N2CCN(C(=O)c3cc(OC)c(OC)c(OC)c3)C(COC(=O)NCCC(C)C)C2)cc(OC)c1OC (stereo unspecified) [(3-Methyl-butyl)-carbamic acid 1,4-bis-(3,4,5-trimethoxy-benzoyl)-piperazin-2-ylmethyl ester]
5		COc1cc(C(=O)N2CCN(C(=O)c3cc(OC)c(OC)c(OC)c3)C(COC(=O)COc3ccc(Cl)cc3)C2)cc(OC)c1OC (stereo unspecified) [(4-Chloro-phenoxy)-acetic acid 1,4-bis-(3,4,5-trimethoxy-benzoyl)-piperazin-2-ylmethyl ester]
10.3		COc1cc(C(=O)N2CCN(C(=O)c3cc(OC)c(OC)c(OC)c3)C(COC(=O)COc3ccc(F)cc3)C2)cc(OC)c1OC (stereo unspecified) [(4-Fluoro-phenoxy)-acetic acid 1,4-bis-(3,4,5-trimethoxy-benzoyl)-piperazin-2-ylmethyl ester]
0.43	0.4	COc1cc(C(=O)N2CCN(C(=O)c3cc(OC)c(OC)c(OC)c3)C(COC(C)=O)C2)cc(OC)c1OC (stereo unspecified) [Acetic acid 1,4-bis-(3,4,5-trimethoxy-benzoyl)-piperazin-2-ylmethyl ester]
0.24	0.7	CCCCNC(=O)OCC1CN(C(=O)c2cc(OC)c(OC)c(OC)c2)CCN1C(=O)c1cc(OC)c(OC)c(OC)c1 (stereo unspecified) [Butyl-carbamic acid 1,4-bis-(3,4,5-trimethoxy-benzoyl)-piperazin-2-ylmethyl ester]
0.42		CCCC(=O)OCC1CN(C(=O)c2cc(OC)c(OC)c(OC)c2)CCN1C(=O)c1cc(OC)c(OC)c(OC)c1 (stereo unspecified) [Butyric acid 1,4-bis-(3,4,5-trimethoxy-benzoyl)-piperazin-2-ylmethyl ester]
0.29		COc1cc(C(=O)N2CCN(C(=O)c3cc(OC)c(OC)c(OC)c3)C(COC(=O)C3CCCCC3)C2)cc(OC)c1OC (stereo unspecified) [Cyclohexanecarboxylic acid 1,4-bis-(3,4,5-trimethoxy-benzoyl)-piperazin-2-ylmethyl ester]
2.82		CCCCCCCCCC(=O)OCC1CN(C(=O)c2cc(OC)c(OC)c(OC)c2)CCN1C(=O)c1cc(OC)c(OC)c(OC)c1 (stereo unspecified) [Decanoic acid 1,4-bis-(3,4,5-trimethoxy-benzoyl)-piperazin-2-ylmethyl ester]
1.25		CCCCN(CCCC)C(=O)OCC1CN(C(=O)c2cc(OC)c(OC)c(OC)c2)CCN1C(=O)c1cc(OC)c(OC)c(OC)c1 (stereo unspecified) [Dibutyl-carbamic acid 1,4-bis-(3,4,5-trimethoxy-benzoyl)-piperazin-2-ylmethyl ester]
25.8		CCN(CC)C(=O)OCC1CN(C(=O)c2cc(OC)c(OC)c(OC)c2)CCN1C(=O)c1cc(OC)c(OC)c(OC)c1 (stereo unspecified) [Diethyl-carbamic acid 1,4-bis-(3,4,5-trimethoxy-benzoyl)-piperazin-2-ylmethyl ester]
11.4		CCCCCN(CCCCC)C(=O)OCC1CN(C(=O)c2cc(OC)c(OC)c(OC)c2)CCN1C(=O)c1cc(OC)c(OC)c(OC)c1 (stereo unspecified) [Dipentyl-carbamic acid 1,4-bis-(3,4,5-trimethoxy-benzoyl)-piperazin-2-ylmethyl ester]
0.29		CCCCCC(=O)OCC1CN(C(=O)c2cc(OC)c(OC)c(OC)c2)CCN1C(=O)c1cc(OC)c(OC)c(OC)c1 (stereo unspecified) [Hexanoic acid 1,4-bis-(3,4,5-trimethoxy-benzoyl)-piperazin-2-ylmethyl ester]
45		CCCCCCCCCCCCCCCCCC(=O)OCC1CN(C(=O)c2cc(OC)c(OC)c(OC)c2)CCN1C(=O)c1cc(OC)c(OC)c(OC)c1 (stereo unspecified) [Octadecanoic acid 1,4-bis-(3,4,5-trimethoxy-benzoyl)-piperazin-2-ylmethyl ester]
0.31		CCCCCCCC(=O)OCC1CN(C(=O)c2cc(OC)c(OC)c(OC)c2)CCN1C(=O)c1cc(OC)c(OC)c(OC)c1 (stereo unspecified) [Octanoic acid 1,4-bis-(3,4,5-trimethoxy-benzoyl)-piperazin-2-ylmethyl ester]
0.37		CCCCCCCCNC(=O)OCC1CN(C(=O)c2cc(OC)c(OC)c(OC)c2)CCN1C(=O)c1cc(OC)c(OC)c(OC)c1 (stereo unspecified) [Octyl-carbamic acid 1,4-bis-(3,4,5-trimethoxy-benzoyl)-piperazin-2-ylmethyl ester]
0.13		COc1cc(C(=O)N2CCN(C(=O)c3cc(OC)c(OC)c(OC)c3)C(COC(=O)NC(C)(C)C)C2)cc(OC)c1OC (stereo unspecified) [tert-Butyl-carbamic acid 1,4-bis-(3,4,5-trimethoxy-benzoyl)-piperazin-2-ylmethyl ester]
